“And” between values parts separate entries of the source, which are not always exact repeats. Equal entries are not always repeated. Inconclusive results and toxic doses are left out.

Here are results for 15 molecules from PubChem BioAssay AID248 (DTP/NCI, 2004).

The assay has as its system L1210 leukemia ip in BDF1 mice, survival T/C. Description: NCI In Vivo Anticancer Drug Screen. Data for tumor model L1210 Leukemia (intraperitoneal) in B6D2F1 (BDF1) mice. The note with it: endpoint: mean survival time, higher = longer survival. Put shortly:
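Transplanted-tumor mice were given test agent; controls received vehicle only. Survival readings from the two groups were divided (treated over control).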

[1] abbreviates: dose: 100.0 mg/kg/injection, schedule: Q01DX009 (ip), vehicle: saline with Tween-80.
The mark [2] stands for this setting: dose: 200.0 mg/kg/injection, schedule: Q01DX009 (ip), vehicle: saline with Tween-80.
The mark [3] stands for this setting: dose: 25.0 mg/kg/injection, schedule: Q04DX003 (ip), vehicle: Klucel (hydroxypropylcellulose) (HPC).
Where [4] appears, read: dose: 50.0 mg/kg/injection, schedule: Q04DX003 (ip), vehicle: Klucel (hydroxypropylcellulose) (HPC).
[5] abbreviates: dose: 100.0 mg/kg/injection, schedule: Q04DX003 (ip), vehicle: Klucel (hydroxypropylcellulose) (HPC).
Where [6] appears, read: dose: 200.0 mg/kg/injection, schedule: Q01DX001 (ip), vehicle: saline.
The mark [7] stands for this setting: dose: 400.0 mg/kg/injection, schedule: Q01DX001 (ip), vehicle: saline.
[8] abbreviates: dose: 400.0 mg/kg/injection, schedule: Q01DX009 (ip), vehicle: saline with Tween-80.
[9] abbreviates: dose: 100.0 mg/kg/injection, schedule: Q01DX009 (ip), vehicle: Klucel (hydroxypropylcellulose) (HPC).
[10] abbreviates: dose: 200.0 mg/kg/injection, schedule: Q01DX009 (ip), vehicle: Klucel (hydroxypropylcellulose) (HPC).
[11] abbreviates: dose: 200.0 mg/kg/injection, schedule: Q04DX003 (ip), vehicle: Klucel (hydroxypropylcellulose) (HPC).
[12] abbreviates: dose: 400.0 mg/kg/injection, schedule: Q01DX009 (ip), vehicle: Klucel (hydroxypropylcellulose) (HPC).
[13] abbreviates: dose: 400.0 mg/kg/injection, schedule: Q04DX003 (ip), vehicle: Klucel (hydroxypropylcellulose) (HPC).

As for `CC1(C)N=C(N)N=C(N)N1c1cccc(OCCOc2ccc(N)cc2)c1`, the T/C by setting is: (dose: 10.0 mg/kg/injection, schedule: Q01DX001 (ip), vehicle: saline) 94 % of control; (dose: 20.0 mg/kg/injection, schedule: Q01DX001 (ip), vehicle: saline) 96 % of control; (dose: 40.0 mg/kg/injection, schedule: Q01DX001 (ip), vehicle: saline) 102 % of control.
As for `CSc1nc(NN)cc(-c2ccccc2)n1`, the T/C is 98 % of control (dose: 100.0 mg/kg/injection, schedule: Q01DX Z (ip), vehicle: methylcellulose (MC)) and 90 % of control (dose: 200.0 mg/kg/injection, schedule: Q01DX Z (ip), vehicle: methylcellulose (MC)).
In the case of `CCOC(=O)c1ccc(NC(=O)Nc2nccs2)cc1`, the T/C reads like this: (dose: 88.0 mg/kg/injection, schedule: Q01DX009 (ip), vehicle: saline with Tween-80) 113 % of control; under setting [1], 123 % of control; (dose: 132.0 mg/kg/injection, schedule: Q01DX009 (ip), vehicle: saline with Tween-80) 109 % of control; under setting [2], 122 % of control; (dose: 300.0 mg/kg/injection, schedule: Q01DX009 (ip), vehicle: saline with Tween-80) 124 % of control.
With `OCCCCCCCCCCCC[n+]1ccccc1`, under “dose: 87.5 mg/kg/injection, schedule: Q01DX001 (ip), vehicle: saline”, the T/C was 105 % of control.
As for `O=C(C[n+]1ccc2c([N+](=O)[O-])cccc2c1)c1ccccc1`, the T/C runs as follows: (dose: 12.5 mg/kg/injection, schedule: Q04DX003 (ip), vehicle: Klucel (hydroxypropylcellulose) (HPC)) 98 % of control; under setting [3], 105 % of control; under setting [4], 103 % of control; under setting [5], 96 % of control.
Take `O=C1C(c2c[nH]c3ccc(Br)cc23)=Nc2ccc([N+](=O)[O-])cc21`: the T/C was 96 % of control under setting [6] and 93 % of control under setting [7].
Take `C/C=C\c1ccc(OC(=O)NCCC)c(OC)c1`: the T/C by setting is: under setting [1], 95 % of control and 97 % of control; (dose: 100.0 mg/kg/injection, schedule: Q04DX002 (ip), vehicle: Klucel (hydroxypropylcellulose) (HPC)) 100 % of control; (dose: 100.0 mg/kg/injection, schedule: Q04DX002 (ip), vehicle: saline with Tween-80) 102 % of control and 106 % of control; (dose: 100.0 mg/kg/injection, schedule: Q04DX003 (ip), vehicle: saline with Tween-80) 97 % of control; under setting [2], 95 % of control and 97 % of control; (dose: 200.0 mg/kg/injection, schedule: Q04DX002 (ip), vehicle: Klucel (hydroxypropylcellulose) (HPC)) 113 % of control. Also, the T/C by setting is: (dose: 200.0 mg/kg/injection, schedule: Q04DX002 (ip), vehicle: saline with Tween-80) 105 % of control and 112 % of control; (dose: 200.0 mg/kg/injection, schedule: Q04DX003 (ip), vehicle: saline with Tween-80) 87 % of control; under setting [8], 97 % of control; (dose: 400.0 mg/kg/injection, schedule: Q04DX002 (ip), vehicle: Klucel (hydroxypropylcellulose) (HPC)) 95 % of control; (dose: 400.0 mg/kg/injection, schedule: Q04DX002 (ip), vehicle: saline with Tween-80) 94 % of control and 106 % of control; (dose: 400.0 mg/kg/injection, schedule: Q04DX003 (ip), vehicle: saline with Tween-80) 102 % of control.
`CC(=O)NCC(C)(C)c1ccccc1`: the T/C (dose: 100.0 mg/kg/injection, schedule: Q01DX001 (ip), vehicle: saline) is 96 % of control; the T/C (dose: 100.0 mg/kg/injection, schedule: Q01DX009 (ip), vehicle: saline) is 102 % of control; the T/C under setting [6] is 102 % of control; the T/C (dose: 200.0 mg/kg/injection, schedule: Q01DX009 (ip), vehicle: saline) was 100 % of control; the T/C under setting [7] is 110 % of control; the T/C (dose: 400.0 mg/kg/injection, schedule: Q01DX009 (ip), vehicle: saline) is 102 % of control.
As for `CN(/N=N/c1nc[nH]c1C(N)=O)C(C)(C)C`, the T/C runs as follows: (dose: 12.5 mg/kg/injection, schedule: Q01DX009 (ip), vehicle: saline with Tween-80) 103 % of control; (dose: 12.5 mg/kg/injection, schedule: Q04DX009 (ip), vehicle: saline with Tween-80) 98 % of control; (dose: 25.0 mg/kg/injection, schedule: Q01DX009 (ip), vehicle: saline with Tween-80) 93 % of control; under setting [3], 100 % of control; (dose: 25.0 mg/kg/injection, schedule: Q04DX009 (ip), vehicle: saline with Tween-80) 103 % of control; (dose: 50.0 mg/kg/injection, schedule: Q01DX009 (ip), vehicle: saline with Tween-80) 101 % of control. Moreover, the T/C was 103 % of control under setting [4]; 103 % of control (dose: 50.0 mg/kg/injection, schedule: Q04DX009 (ip), vehicle: saline with Tween-80); 97 % of control under setting [9]; 103 % of control under setting [1]; 102 % of control under setting [5]; 103 % of control (dose: 100.0 mg/kg/injection, schedule: Q04DX009 (ip), vehicle: saline with Tween-80). In addition, the T/C runs as follows: under setting [10], 96 % of control; under setting [2], 103 % of control; under setting [11], 111 % of control; (dose: 200.0 mg/kg/injection, schedule: Q04DX009 (ip), vehicle: saline with Tween-80) 101 % of control; under setting [12], 97 % of control; under setting [8], 97 % of control. Moreover, the T/C is, setting by setting: under setting [13], 105 % of control; (dose: 400.0 mg/kg/injection, schedule: Q04DX009 (ip), vehicle: saline with Tween-80) 101 % of control.
As to `CN(C)C(=O)Sc1ccc([N+](=O)[O-])cc1Cl`, the T/C under setting [5] is 107 % of control, the T/C under setting [11] is 101 % of control and the T/C under setting [13] is 101 % of control.
In the case of `CC(C)C(=O)[O][Sn]([c]1ccccc1)([c]1ccccc1)[c]1ccccc1`, the T/C runs as follows: (dose: 12.5 mg/kg/injection, schedule: Q04DX002 (ip), vehicle: Klucel (hydroxypropylcellulose) (HPC)) 97 % of control; (dose: 25.0 mg/kg/injection, schedule: Q04DX002 (ip), vehicle: Klucel (hydroxypropylcellulose) (HPC)) 93 % of control; (dose: 50.0 mg/kg/injection, schedule: Q04DX002 (ip), vehicle: Klucel (hydroxypropylcellulose) (HPC)) 93 % of control.
With `Cc1nc(-c2ccccc2)nc2c1CCO2`, the T/C is 100 % of control under setting [1] and 107 % of control under setting [2].
In the case of `O=C(CN1CC1)Nc1ccc(NC(=O)CN2CC2)cc1`, the T/C (dose: 1.5 mg/kg/injection, schedule: Q01DX009 (ip), vehicle: carboxymethylcellulose (CMC)) was 116 % of control and 117 % of control; the T/C (dose: 7.3 mg/kg/injection, schedule: Q01DX001 (ip), vehicle: carboxymethylcellulose (CMC)) is 116 % of control; the T/C (dose: 11.0 mg/kg/injection, schedule: Q01DX009 (ip), vehicle: carboxymethylcellulose (CMC)) is 168 % of control; the T/C (dose: 11.1 mg/kg/injection, schedule: Q01DX009 (ip), vehicle: carboxymethylcellulose (CMC)) was 161 % of control; the T/C (dose: 16.6 mg/kg/injection, schedule: Q01DX009 (ip), vehicle: carboxymethylcellulose (CMC)) was 96 % of control and 211 % of control; the T/C (dose: 25.0 mg/kg/injection, schedule: Q01DX001 (ip), vehicle: carboxymethylcellulose (CMC)) is 152 % of control and 160 % of control. The T/C was 103 % of control (dose: 25.0 mg/kg/injection, schedule: Q01DX009 (ip), vehicle: carboxymethylcellulose (CMC)); 163 % of control (dose: 37.5 mg/kg/injection, schedule: Q01DX001 (ip), vehicle: carboxymethylcellulose (CMC)); 151 % of control (dose: 50.0 mg/kg/injection, schedule: Q01DX001 (ip), vehicle: carboxymethylcellulose (CMC)).
As for `Cc1ccc([N+](=O)[O-])cc1NC(=O)Nc1ccc(S(N)(=O)=O)cc1`, the T/C was 97 % of control under setting [9]; 96 % of control under setting [5]; 98 % of control under setting [10]; 92 % of control under setting [11]; 103 % of control under setting [12]; 91 % of control under setting [13].
As for `COc1ccccc1C(Cc1ccc(N2C(N)=NC(N)=NC2(C)C)cc1)C(=O)Nc1ccc(S(=O)(=O)F)cc1` (stereo unspecified), the T/C reads like this: (dose: 100.0 mg/kg/injection, schedule: Q01DX001 (ip), vehicle: Klucel (hydroxypropylcellulose) (HPC)) 101 % of control; (dose: 200.0 mg/kg/injection, schedule: Q01DX001 (ip), vehicle: Klucel (hydroxypropylcellulose) (HPC)) 101 % of control; (dose: 400.0 mg/kg/injection, schedule: Q01DX001 (ip), vehicle: Klucel (hydroxypropylcellulose) (HPC)) 99 % of control.
